# Laboratory results taken from patent US20100168105A1, “Spirocyclopropyl Piperidine Derivatives” (priority 2007, published 2010).
# What was measured:
# [1] = target: T1, human Histamine H3 receptor (hH3R) (Homo sapiens, UniProt Q9Y5N1); assay: Guanosine 5'-O-(3-[35S]thio)triphosphate [GTPγS] Binding Assay; assay type: biochemical; settings: antagonist activity; membranes from CHO cells expressing hH3R, (R)-α-methyl histamine 30 nM, [35S]GTPγS 0.2 nM, 90 minutes
# T1 construct: expressed in transfected cells; host or cells: CHO cells (membranes)
# Method: Guanosine 5′-O-(3-[^35]thio)triphosphate [GTPγS] Binding Assay
# The GTPγS binding assay can be used to investigate antagonist properties of compounds in CHO cells (Chinese Hamster Ovary) transfected with human Histamine H3 receptor (hH3R). […] To determine antagonist activity, (R)-α-methyl histamine (30 nM) is added in 96 well SPA plate with [^35S]GTPγS (0.2 nM) and various concentration of H3R antagonists. The GTPγS binding assay is started with addition of the mixture membrane/saponine/GDP and incubated for 90 minutes at room temperature. The amount of bound [^35S]GTPγS is determined by using the MicroBeta Trilux counter (PerkinElmer). The percentage of [^35S]GTPγS bound in each sample is calculated as a percentage of that bound control sample incubated in absence of H3 antagonist. Duplicate determinations are obtained for each concentration, and the data are analyzed using ExcelFit4 to obtain the IC50.
# [2] = target: human histamine H3 receptors (full-length H3, isoform 445) (Homo sapiens, UniProt Q9Y5N1); settings: hH3 binding IC50 (nM), inhibition of 1.4 nM [3H]-N-α-methylhistamine binding to CHO-K1 membranes expressing human H3, SPA, 1.5 hr;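 also: scintillation counts read after the 1.5 hr incubation at room temperature with shaking, Imetit serving as reference control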
# human histamine H3 receptors (full-length H3, isoform 445), sequence (Q9Y5N1 whole entry, canonical isoform): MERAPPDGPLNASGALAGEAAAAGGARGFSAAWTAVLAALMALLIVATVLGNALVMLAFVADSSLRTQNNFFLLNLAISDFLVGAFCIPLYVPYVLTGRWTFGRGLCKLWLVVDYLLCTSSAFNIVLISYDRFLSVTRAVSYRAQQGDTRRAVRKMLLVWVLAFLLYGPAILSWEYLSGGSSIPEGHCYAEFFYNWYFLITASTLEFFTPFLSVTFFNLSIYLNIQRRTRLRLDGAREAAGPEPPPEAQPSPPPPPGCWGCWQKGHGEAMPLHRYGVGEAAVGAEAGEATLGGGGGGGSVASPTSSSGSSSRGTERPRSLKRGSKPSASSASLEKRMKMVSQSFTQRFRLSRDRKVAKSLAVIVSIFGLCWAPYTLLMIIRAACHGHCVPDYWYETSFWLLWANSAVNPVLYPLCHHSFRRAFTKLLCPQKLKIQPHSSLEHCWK
# Method: Histamine H3 SPA with the Agonist Radioligand [^3H]—N-α-methylhistamine
# Reproducibility of the assay is such that IC50 curves can be generated in singlicate. Single poke (SP) testing was done in triplicate.
# Membranes, prepared from CHO-K1 cells stably expressing the human histamine H3 receptor, were obtained from ACS.
# Tested formula I compounds were provided as solubilized samples in neat DMSO. Serial dilutions were performed in DMSO.
# Plates were read on a Perkin Elmer TopCount. CPM data were used to analyze unless DPM data generated by a quench curve were required.
# • 1. 1 mg/ml BSA was added to assay buffer (AB) on day of assay. • 2. […] Buffer volume was split between beads and membranes to allow for polytroning of membranes prior to addition to beads. • a. […] Waited a minimum of 15 minutes prior to adding membranes (See b. below.). • b. […] The homogenized membrane mixture was combined with the beads and a minimum of 30 minutes was waited prior to dispensing to plate. • 3. Formula I compounds: For Single Poke, 2 μl 1 mM of a compound in accordance with formula I was dispensed to Optiplates (triplicate plates) for final concentration of 10 μM. […] Imetit (see below) was used as a control. • 4. […] 5 μl samples were calculated in quadruplicate on the β counter. […] (For IC50s, use final concentration on calculation tab of ABase template.)
# • 1. […] 2 μl of the formula I compound dilution was mixed and then transferred into assay plates. DMSO was removed and 2 μl of 100 μM Imetit was added to the wells. • 3. 178 μl bead/membrane mixture was dispensed into the assay plate. • 4. 20 μl [^3H]-NAMH was added with Rapid Plate. The assay plate was sealed and incubated for 1.5 hr on RT shaker at speed ˜6.5. • 5. The assay plate was subsequently centrifuged at 1000 rpm for 10 minutes. • 6. The count was performed on TopCount using one of the 3H SPA H3 Quench programs.
# The DPM data was analyzed when tSIS was less than that associated with 70% of full scale on the quench curve (tSIS<25%). Otherwise, CPM data was used.
# T1 sequence (Q9Y5N1 whole entry): as the sequence (Q9Y5N1 whole entry, canonical isoform) above
IC50 [1],IC50 [2],SMILES
16.4 nM,27.4 nM,"O=C(C1CC12CCN(CCc1ccccc1)CC2)N1CCN(C2CCCCC2)CC1 (single isomer, unassigned) [Example 17, (4-Cyclohexyl-piperazin-1-yl)-(6-phenethyl-6-aza-spiro[2.5]oct-1-yl)-methanone]"
125 nM,407 nM,"O=C(C1CC12CCN(CCc1ccccc1)CC2)N1CCN(C2CCCCC2)CC1 (single isomer, unassigned) [Example 18, (4-Cyclohexyl-piperazin-1-yl)-(6-phenethyl-6-aza-spiro[2.5]oct-1-yl)-methanone]"
6.55 nM,1.35 nM,"O=C(C1CC12CCN(C1CCCCC1)CC2)N1CCN(C2CCC2)CC1 (single isomer, unassigned) [Example 26, (4-Cyclobutyl-piperazin-1-yl)-(6-cyclohexyl-6-aza-spiro[2.5]oct-1-yl)-methanone]"
44 nM,7.68 nM,"O=C(C1CC12CCN(C1CCCCC1)CC2)N1CCN(C2CCC2)CC1 (single isomer, unassigned) [Example 27, (4-Cyclobutyl-piperazin-1-yl)-(6-cyclohexyl-6-aza-spiro[2.5]oct-1-yl)-methanone]"
13.2 nM,2.66 nM,"CC(C)N1CCN(C(=O)C2CC23CCN(C2CCOCC2)CC3)CC1 (single isomer, unassigned) [Example 28, (4-Isopropyl-piperazin-1-yl)-[6-(tetrahydro-pyran-4-yl)-6-aza-spiro[2.5]oct-1-yl]-methanone]"
87.5 nM,50.9 nM,"CC(C)N1CCN(C(=O)C2CC23CCN(C2CCOCC2)CC3)CC1 (single isomer, unassigned) [Example 29, (4-Isopropyl-piperazin-1-yl)-[6-(tetrahydro-pyran-4-yl)-6-aza-spiro[2.5]oct-1-yl]-methanone]"
13 nM,33.6 nM,"O=C(C1CC12CCN(C1CCOCC1)CC2)N1CCN(C2CCCCC2)CC1 (stereo not drawn) [Example 1, (4-Cyclohexyl-piperazin-1-yl)-[6-(tetrahydro-pyran-4-yl)-6-aza-spiro[2.5]oct-1-yl]-methanone]"
–,390 nM,"O=C(C1CC12CCN(C1CCOCC1)CC2)N1CCN(CC2CCCCC2)CC1 (stereo not drawn) [Example 2, (4-Cyclohexylmethyl-piperazin-1-yl)-[6-(tetrahydro-pyran-4-yl)-6-aza-spiro[2.5]oct-1-yl]-methanone]"
–,1000 nM,"CCC(CC)CN1CCC2(CC1)CC2C(=O)N1CCN(C)CC1 (stereo not drawn) [Example 3, [6-(2-Ethyl-butyl)-6-aza-spiro[2.5]oct-1-yl]-(4-methyl-piperazin-1-yl)-methanone]"
–,800 nM,"CN1CCN(C(=O)C2CC23CCN(C/C=C/c2ccccc2)CC3)CC1 (stereo not drawn) [Example 4, (4-Methyl-piperazin-1-yl)-[6-((E)-3-phenyl-allyl)-6-aza-spiro[2.5]oct-1-yl]-methanone]"
–,1300 nM,"CN1CCC(N2CCC3(CC2)CC3C(=O)N2CCN(C)CC2)CC1 (stereo not drawn) [Example 6, (4-Methyl-piperazin-1-yl)-[6-(1-methyl-piperidin-4-yl)-6-aza-spiro[2.5]oct-1-yl]-methanone]"
1200 nM,1400 nM,"CN1CCN(C(=O)C2CC23CCN(C2CCOCC2)CC3)CC1 (stereo not drawn) [Example 7, (4-Methyl-piperazin-1-yl)-[6-(tetrahydro-pyran-4-yl)-6-aza-spiro[2.5]oct-1-yl]-methasone]"
3.66 nM,4.1 nM,"O=C(C1CC12CCN(C1CCOCC1)CC2)N1CCN(C2CCC2)CC1 (stereo not drawn) [Example 8, (4-Cyclobutylpiperazin-1-yl)(6-(tetrahydro-2H-pyran-4-yl)-6-azaspiro[2.5]octan-1-yl)methanone]"
19 nM,33.5 nM,"O=C(C1CC12CCN(C1CCOCC1)CC2)N1CCN(C2CC2)CC1 (stereo not drawn) [Example 9, (4-Cyclopropylpiperazin-1-yl)(6-(tetrahydro-2H-pyran-4-yl)-6-azaspiro[2.5]octan-1-yl)methanone]"
–,573 nM,"O=C(C1CC12CCN(C1CCOCC1)CC2)N1CCN(c2ccccn2)CC1 (stereo not drawn) [Example 13, (4-Pyridin-2-yl-piperazin-1-yl)-[6-(tetrahydro-pyran-4-yl)-6-aza-spiro[2.5]oct-1-yl]-methanone]"
–,322 nM,"COc1ccc(N2CCN(C(=O)C3CC34CCN(C3CCOCC3)CC4)CC2)cc1 (stereo not drawn) [Example 15, [4-(4-Methoxy-phenyl)-piperazin-1-yl]-[6-(tetrahydro-pyran-4-yl)-6-aza-spiro[2.5]oct-1-yl]-methanone]"
–,306 nM,"O=C(C1CC12CCN(Cc1ccccc1)CC2)N1CCN(C2CCCCC2)CC1 (stereo not drawn) [Example 23, (6-Benzyl-6-aza-spiro[2.5]oct-1-yl)-(4-cyclohexyl-piperazin-1-yl)-methanone]"

IC50 [1],IC50 [2],SMILES
–,336 nM,"O=C(C1CC12CCN(C1CCOCC1)CC2)N1CCN(C2CCOCC2)CC1 (stereo not drawn) [Example 24, [6-(Tetrahydro-pyran-4-yl)-6-aza-spiro[2.5]oct-1-yl]-[4-(tetrahydro-pyran-4-yl)-piperazin-1-yl]-methanone]"
–,419 nM,"O=C(C1CC12CCN(CCOCc1ccccc1)CC2)N1CCN(C2CCCCC2)CC1 (stereo not drawn) [Example 25, [6-(2-Benzyloxy-ethyl)-6-aza-spiro[2.5]oct-1-yl]-(4-cyclohexyl-piperazin-1-yl)-methanone]"
–,182 nM,"CC(C)(C)OC(=O)CN1CCC2(CC1)CC2C(=O)N1CCN(C2CCC2)CC1 (stereo not drawn) [Example 36, [1-(4-Cyclobutyl-piperazine-1-carbonyl)-6-aza-spiro[2.5]oct-6-yl]-acetic acid tert-butyl ester]"
–,207 nM,"CNC(=O)CN1CCC2(CC1)CC2C(=O)N1CCN(C2CCC2)CC1 (stereo not drawn) [Example 37, 2-[1-(4-Cyclobutyl-piperazine-1-carbonyl)-6-aza-spiro[2.5]oct-6-yl]-N-methyl-acetamide]"
–,336 nM,"CS(=O)(=O)c1ccc(N2CCC3(CC2)CC3C(=O)N2CCN(C3CCC3)CC2)cc1 (stereo not drawn) [Example 38, (4-Cyclobutyl-piperazin-1-yl)-[6-(4-methanesulfonyl-phenyl)-6-aza-spiro[2.5]oct-1-yl]-methanone]"
–,361 nM,"COc1ccc(N2CCC3(CC2)CC3C(=O)N2CCN(C3CCC3)CC2)cc1 (stereo not drawn) [Example 39, (4-Cyclobutyl-piperazin-1-yl)-[6-(4-methoxy-phenyl)-6-aza-spiro[2.5]oct-1-yl]-methanone]"
–,470 nM,"COC(=O)c1ccc(N2CCC3(CC2)CC3C(=O)N2CCN(C3CCC3)CC2)cc1 (stereo not drawn) [Example 40, 4-[1-(4-Cyclobutyl-piperazine-1-carbonyl)-6-aza-spiro[2.5]oct-6-yl]-benzoic acid methyl ester]"
–,542 nM,"COc1cccc(N2CCC3(CC2)CC3C(=O)N2CCN(C3CCC3)CC2)n1 (stereo not drawn) [Example 41, (4-Cyclobutyl-piperazin-1-yl)-[6-(6-methoxy-pyridin-2-yl)-6-aza-spiro[2.5]oct-1-yl]-methanone]"
–,594 nM,"O=C(C1CC12CCN(c1cccc(Cl)n1)CC2)N1CCN(C2CCC2)CC1 (stereo not drawn) [Example 42, [6-(6-Chloro-pyridin-2-yl)-6-aza-spiro[2.5]oct-1-yl]-(4-cyclobutyl-piperazin-1-yl)-methanone]"
–,615 nM,"COCCN1CCC2(CC1)CC2C(=O)N1CCN(C2CCCCC2)CC1 (stereo not drawn) [Example 43, (4-Cyclohexyl-piperazin-1-yl)-[6-(2-methoxy-ethyl)-6-aza-spiro[2.5]oct-1-yl]-methanone]"
–,736 nM,"O=C(C1CC12CCN(c1ccccn1)CC2)N1CCN(C2CCC2)CC1 (stereo not drawn) [Example 44, (4-Cyclobutyl-piperazin-1-yl)-(6-pyridin-2-yl-6-aza-spiro[2.5]oct-1-yl)-methanone]"
–,791 nM,"Cc1ccc(N2CCC3(CC2)CC3C(=O)N2CCN(C3CCC3)CC2)cc1 (stereo not drawn) [Example 45, (4-Cyclobutyl-piperazin-1-yl)-(6-p-tolyl-6-aza-spiro[2.5]oct-1-yl)-methanone]"
–,10000 nM,"O=C(C1CC12CCN(c1ccc(C(F)(F)F)cn1)CC2)N1CCN(C2CCCCC2)CC1 (stereo not drawn) [Example 46, (4-Cyclohexyl-piperazin-1-yl)-[6-(5-trifluoromethyl-pyridin-2-yl)-6-aza-spiro[2.5]oct-1-yl]-methanone]"
–,5170 nM,"O=C(C1CC12CCN(c1ccc3c(c1)OCO3)CC2)N1CCN(C2CCCCC2)CC1 (stereo not drawn) [Example 47, (6-Benzo[1,3]dioxol-5-yl-6-aza-spiro[2.5]oct-1-yl)-(4-cyclohexyl-piperazin-1-yl)-methanone]"
308 nM,–,"O=C(C1CC12CCN(C1CCOCC1)CC2)N1CCN(c2cccnc2)CC1 (stereo not drawn) [Example 48, (4-(pyridin-3-yl)piperazin-1-yl)(6-(tetrahydro-2H-pyran-4-yl)-6-azaspiro[2.5]octan-1-yl)methanone]"
249 nM,–,"Cc1cc(N2CCN(C(=O)C3CC34CCN(C3CCOCC3)CC4)CC2)ccn1 (stereo not drawn) [Example 49, (4-(2-methylpyridin-4-yl)piperazin-1-yl)(6-(tetrahydro-2H-pyran-4-yl)-6-azaspiro[2.5]octan-1-yl)methanone]"
115 nM,–,"Cc1cnccc1N1CCN(C(=O)C2CC23CCN(C2CCOCC2)CC3)CC1 (stereo not drawn) [Example 50, (4-(3-methylpyridin-4-yl)piperazin-1-yl)(6-(tetrahydro-2H-pyran-4-yl)-6-azaspiro[2.5]octan-1-yl)methanone]"

SMILES,IC50 [1],IC50 [2]
"CN1CCN(C(=O)C2CC23CCN(CCc2ccccc2)CC3)CC1 (stereo not drawn) [Example 5, (4-Methyl-piperazin-1-yl)-(6-phenethyl-6-aza-spiro[2.5]oct-1-yl)-methanone]",–,640 nM
